The target in the test is Heat shock 70 kDa protein 1A (Homo sapiens) (UniProt P0DMV8). Put plainly: PubChem AID 651948. The settings on record: HeLa Hsp70 protein level, western blot, 8 h; at 10 µM; hits give high values.

SMILES strings stand for the structures.

Chain of Heat shock 70 kDa protein 1A (Homo sapiens) (P0DMV8 whole entry, looked up): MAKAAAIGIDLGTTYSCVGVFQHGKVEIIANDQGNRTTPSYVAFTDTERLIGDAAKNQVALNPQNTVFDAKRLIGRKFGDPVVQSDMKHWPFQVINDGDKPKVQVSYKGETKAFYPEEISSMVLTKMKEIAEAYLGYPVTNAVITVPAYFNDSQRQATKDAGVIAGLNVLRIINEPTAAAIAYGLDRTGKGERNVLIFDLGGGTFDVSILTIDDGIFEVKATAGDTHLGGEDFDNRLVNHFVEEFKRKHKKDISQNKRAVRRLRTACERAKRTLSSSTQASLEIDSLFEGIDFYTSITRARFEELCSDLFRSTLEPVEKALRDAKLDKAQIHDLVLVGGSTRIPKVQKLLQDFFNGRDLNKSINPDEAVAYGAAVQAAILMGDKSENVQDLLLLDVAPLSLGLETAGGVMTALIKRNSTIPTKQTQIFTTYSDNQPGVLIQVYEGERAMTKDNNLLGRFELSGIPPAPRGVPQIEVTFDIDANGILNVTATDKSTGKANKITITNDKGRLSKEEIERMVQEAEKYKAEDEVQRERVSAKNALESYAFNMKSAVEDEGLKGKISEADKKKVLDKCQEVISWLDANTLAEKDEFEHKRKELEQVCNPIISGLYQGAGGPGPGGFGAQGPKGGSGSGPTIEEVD

As for `COc1ccc(/C=C/C=C2C(=O)NC(=O)NC2=O)cc1`, the fold induction (commonly the ratio of treated to control signal) was 1.8.

The values are drawn from PubChem BioAssay AID651948 (The Scripps Research Institute Molecular Screening Center, 2012).
